Results published in PubChem BioAssay AID192 (DTP/NCI, 2004).
Where “and” joins values, the source holds several entries; their conditions need not be identical. Equal entries are not always repeated. Toxic doses and inconclusive results are not listed. Peptide text beside a SMILES is read from it. * marks the point of attachment. Cbz = O=C(OCc1ccccc1)*

Tested on: BDF1 mice, B16 melanoma ip, median survival T/C
Test: NCI In Vivo Anticancer Drug Screen. Data for tumor model B16 Melanoma (intraperitoneal) in B6D2F1 (BDF1) mice
Details: endpoint: median survival time, higher = longer survival
Method in brief: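 Values are ratios of treated (T) to vehicle-control (C) measurements of survival or tumor size in tumor-bearing mice.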

[1] = dose: 25.0 mg/kg/injection, schedule: Q01DX009 (ip), vehicle: Klucel (hydroxypropylcellulose) (HPC)
[2] = dose: 50.0 mg/kg/injection, schedule: Q01DX009 (ip), vehicle: Klucel (hydroxypropylcellulose) (HPC)
[3] = dose: 100.0 mg/kg/injection, schedule: Q01DX009 (ip), vehicle: Klucel (hydroxypropylcellulose) (HPC)
[4] = dose: 12.5 mg/kg/injection, schedule: Q01DX009 (ip), vehicle: saline with Tween-80
[5] = dose: 25.0 mg/kg/injection, schedule: Q01DX009 (ip), vehicle: saline with Tween-80
[6] = dose: 50.0 mg/kg/injection, schedule: Q01DX009 (ip), vehicle: saline with Tween-80
[7] = dose: 100.0 mg/kg/injection, schedule: Q01DX009 (ip), vehicle: saline with Tween-80
[8] = dose: 200.0 mg/kg/injection, schedule: Q01DX009 (ip), vehicle: saline with Tween-80
[9] = dose: 50.0 mg/kg/injection, schedule: Q01DX009 (ip), vehicle: saline
[10] = dose: 100.0 mg/kg/injection, schedule: Q01DX009 (ip), vehicle: saline
[11] = dose: 200.0 mg/kg/injection, schedule: Q01DX009 (ip), vehicle: saline
[12] = dose: 400.0 mg/kg/injection, schedule: Q01DX009 (ip), vehicle: saline

**Q.** What does the source list for O=C1NC(c2cccc(OCc3ccccc3)c2)Nc2ccccc21 (centres undefined)?
**A.** T/C [1]: 92 % of control; T/C [2]: 100 % of control; T/C [3]: 103 % of control; T/C (dose: 200.0 mg/kg/injection, schedule: Q01DX009 (ip), vehicle: Klucel (hydroxypropylcellulose) (HPC)): 108 % of control

**Q.** With O=[N+]([O-])O.[NH-]C1CCCCC1[NH-].[NH-]C1CCCCC1[NH-].[NH-]C1CCCCC1[NH-].[OH-].[OH-].[OH-].[Pt+4].[Pt+4].[Pt+4] (centres undefined) as the compound, how does the T/C (dose: 0.25 mg/kg/injection, schedule: Q01DX009 (ip), vehicle: water) read?
**A.** The T/C was 109 % of control and 119 % of control.

**Q.** What about the T/C (dose: 0.5 mg/kg/injection, schedule: Q01DX009 (ip), vehicle: water) of the same compound?
**A.** The T/C was 113 % of control and 123 % of control.

**Q.** O=CN(SSN(C=O)C1CCCCC1)C1CCCCC1 was tested. Which T/C [4] did it give?
**A.** Its T/C is 110 % of control.

**Q.** What about the T/C [5] of the same compound?
**A.** Its T/C is 100 % of control.

**Q.** What about the T/C [6] of the same compound?
**A.** The T/C was 98 % of control.

**Q.** And the T/C [7]?
**A.** Its T/C is 102 % of control.

**Q.** What about the T/C [8] of the same compound?
**A.** The T/C was 88 % of control.

**Q.** How did the T/C [2] turn out when COC(=O)C1CC(C)(C)N(C)C1(C)C (centres undefined) was run?
**A.** The T/C was 93 % of control.

**Q.** What about the T/C [3] of the same compound?
**A.** The T/C was 94 % of control.

**Q.** For O=C(O)c1cccc(S(=O)(=O)N(CCO)CCO)c1, which T/C (dose: 12.5 mg/kg/injection, schedule: Q01DX009 (ip), vehicle: saline) is on record?
**A.** The T/C was 95 % of control.

**Q.** What about the T/C (dose: 25.0 mg/kg/injection, schedule: Q01DX009 (ip), vehicle: saline) of the same compound?
**A.** The T/C was 97 % of control.

**Q.** What about the T/C [6] of the same compound?
**A.** The T/C was 91 % of control.

**Q.** What about the T/C [9] of the same compound?
**A.** The T/C was 92 % of control.

**Q.** For CC(C)(C)NC(=O)CCC(CC(=O)NC(C)(C)C)S(=O)(=O)O (centres undefined), which T/C [9] is on record?
**A.** The T/C was 118 % of control.

**Q.** And the T/C [10]?
**A.** The T/C was 112 % of control.

**Q.** What about the T/C [11] of the same compound?
**A.** The T/C was 93 % of control.

**Q.** What does the source list for O=C(CCl)N1c2ccccc2Oc2cc3ccccc3cc21?
**A.** T/C [9]: 113 % of control; T/C [10]: 106 % of control; T/C [11]: 104 % of control; T/C [12]: 109 % of control

**Q.** What does the source list for COC(=O)C1CCCN1C(=O)C(CCCCNC(=O)OCc1ccccc1)NC(=O)OCc1ccccc1 (centres undefined) (Cbz-Lys(Cbz)-Pro-OMe; configuration not given here)?
**A.** T/C [5]: 94 % of control; T/C [6]: 98 % of control; T/C [7]: 112 % of control; T/C [8]: 108 % of control

**Q.** Which T/C (dose: 8.0 mg/kg/injection, schedule: Q01DX009 (ip), vehicle: saline with Tween-80) does the source give for CCN(CC)CCCC(C)Nc1c2ccc(Cl)cc2nc2ccc(OC)cc12 (centres undefined) here?
**A.** Its T/C is 94 % of control and 102 % of control.

**Q.** What about the T/C (dose: 8.0 mg/kg/injection, schedule: Q01DX009 (ip), vehicle: saline) of the same compound?
**A.** Its T/C is 100 % of control.

**Q.** What about the T/C (dose: 8.0 mg/kg/injection, schedule: Q01DX009 (ip), vehicle: suspension in saline) of the same compound?
**A.** Its T/C is 103 % of control.

**Q.** And the T/C (dose: 16.0 mg/kg/injection, schedule: Q01DX009 (ip), vehicle: saline with Tween-80)?
**A.** The T/C was 88 % of control and 107 % of control.

**Q.** And the T/C (dose: 16.0 mg/kg/injection, schedule: Q01DX009 (ip), vehicle: saline)?
**A.** Its T/C is 102 % of control.

**Q.** And the T/C (dose: 16.0 mg/kg/injection, schedule: Q01DX009 (ip), vehicle: suspension in saline)?
**A.** The T/C was 105 % of control.

**Q.** And the T/C (dose: 20.0 mg/kg/injection, schedule: Q04DX003 (ip), vehicle: saline with Tween-80)?
**A.** Its T/C is 96 % of control.

**Q.** And the T/C (dose: 32.0 mg/kg/injection, schedule: Q01DX009 (ip), vehicle: saline with Tween-80)?
**A.** Its T/C is 116 % of control and 118 % of control.

**Q.** What about the T/C (dose: 32.0 mg/kg/injection, schedule: Q01DX009 (ip), vehicle: saline) of the same compound?
**A.** The T/C was 104 % of control.

**Q.** And the T/C (dose: 32.0 mg/kg/injection, schedule: Q01DX009 (ip), vehicle: suspension in saline)?
**A.** The T/C was 107 % of control.

**Q.** What about the T/C (dose: 40.0 mg/kg/injection, schedule: Q04DX003 (ip), vehicle: saline with Tween-80) of the same compound?
**A.** Its T/C is 105 % of control.

**Q.** And the T/C (dose: 80.0 mg/kg/injection, schedule: Q04DX003 (ip), vehicle: saline with Tween-80)?
**A.** The T/C was 101 % of control.

**Q.** And the T/C (dose: 128.0 mg/kg/injection, schedule: Q01DX009 (ip), vehicle: saline with Tween-80)?
**A.** The T/C was 152 % of control.

**Q.** Which results are given for CNC(=O)OCC(Cl)(Cl)Cl?
**A.** T/C (dose: 75.0 mg/kg/injection, schedule: Q01DX009 (ip), vehicle: Klucel (hydroxypropylcellulose) (HPC)): 102 % of control; T/C (dose: 150.0 mg/kg/injection, schedule: Q01DX009 (ip), vehicle: Klucel (hydroxypropylcellulose) (HPC)): 114 % of control; T/C (dose: 300.0 mg/kg/injection, schedule: Q01DX009 (ip), vehicle: Klucel (hydroxypropylcellulose) (HPC)): 102 % of control

**Q.** How did the T/C (dose: 100.0 mg/kg/injection, schedule: Q01DX009 (ip), vehicle: gum acacia) turn out when Cc1ccc(NC(=O)Nc2ccccc2Cl)cc1 was run?
**A.** The T/C was 89 % of control.

**Q.** Which T/C [10] does the source give for CC(=O)CCCc1ccccc1 here?
**A.** Its T/C is 112 % of control.

**Q.** What about the T/C [11] of the same compound?
**A.** The T/C was 116 % of control.

**Q.** What about the T/C [12] of the same compound?
**A.** Its T/C is 98 % of control.

**Q.** For CC(C)(C)NC/C(=C\c1ccccc1)C(=O)c1ccccc1, which T/C (dose: 6.25 mg/kg/injection, schedule: Q04DX003 (ip), vehicle: saline with Tween-80) is on record?
**A.** Its T/C is 100 % of control.

**Q.** And the T/C (dose: 12.5 mg/kg/injection, schedule: Q01DX009 (ip), vehicle: Klucel (hydroxypropylcellulose) (HPC))?
**A.** The T/C was 96 % of control.

**Q.** What about the T/C (dose: 12.5 mg/kg/injection, schedule: Q04DX003 (ip), vehicle: saline with Tween-80) of the same compound?
**A.** The T/C was 98 % of control.

**Q.** What about the T/C [1] of the same compound?
**A.** The T/C was 96 % of control.

**Q.** And the T/C (dose: 25.0 mg/kg/injection, schedule: Q04DX003 (ip), vehicle: saline with Tween-80)?
**A.** The T/C was 97 % of control and 102 % of control.

**Q.** O=C(Nc1ccccc1)Oc1ccc(OCc2ccccc2)cc1 was tested. Which T/C [4] did it give?
**A.** Its T/C is 96 % of control.

**Q.** And the T/C [5]?
**A.** The T/C was 93 % of control.

**Q.** And the T/C [6]?
**A.** The T/C was 92 % of control.

**Q.** Which results are given for ClCC[Se](Cl)(Cl)c1ccccc1?
**A.** T/C (dose: 0.78 mg/kg/injection, schedule: Q01DX009 (ip), vehicle: saline): 96 % of control; T/C (dose: 1.56 mg/kg/injection, schedule: Q01DX009 (ip), vehicle: saline): 105 % of control; T/C (dose: 3.12 mg/kg/injection, schedule: Q01DX009 (ip), vehicle: saline): 113 % of control
